According to US20070071725A1, “Nitric oxide synthase gene transfer” (priority 2002, published 2007):
Entries after “also recorded” stand apart in the source; their conditions may differ.

Columns and labels:
[1] = system: right double atrial preparations; assay: Heart rate (chronotropic) response of atrial preparations to carbachol; set-up: species or system rat
Description: Sutures (Ethicon, 5/0 mersilk) were placed at the lateral edges of both atria and the preparation was transferred to a pre-heated (37±0.1° C.) water-jacketed organ bath containing 100 ml of continuously oxygenated Tyrode's solution. The atria were vertically mounted with the suture in the left atrium connected to a stainless steel hook and the suture in the right atrium attached to an isometric force transducer (Harvard Apparatus, Model 60-2997, Mass. USA) connected to an amplifier. Heart rate was triggered from contraction and recorded in real time (Biopac MP100 with Acqknowledge software).
Preparations were equilibrated in Tyrode's solution for 60-90 minutes at 37° C. until a stable baseline heart rate was achieved. The right vagus was placed through a pair of custom-built platinum ring electrodes and stimulated at 3, 5, 7 and 10 Hz (15 V, 1 ms pulse duration; order of stimulations randomised) for 25 seconds, with an interval of at least 1 minute between successive stimulations. In some experiments vagal stimulation was repeated after application of the NO donor sodium nitroprusside (SNP; 20 μmol/L, 10 minutes incubation; Sigma). In addition, muscarinic responsiveness of atrial preparations was assessed using cumulative concentration-response curves to carbachol (0.1-0.5 μmol/L; Sigma; 2 minutes incubation at each concentration).

cGMP = cGMP efflux concentration in perfused right atrial preparation; set-up: species or system rat; details: 0.3 μmol/L, SHR vs WKY
Description: Isolated, perfused, beating atria were prepared by previously described method33,34. In brief, the right rat atrium was dissected from the heart after the animal was killed. A cannula containing 2 small catheters sealed within it was inserted into the atrium and secured by ligatures. The outer tip of the atrial cannula was open to allow for outflow. The cannulated atrium was transferred to a preheated (36.5 […]), continuously oxygenated, waterjacketed organ chamber, immediately perfused with oxygenated Tyrode's solution by means of a peristaltic pump (0.5 ml/min).
The atria were perfused for 60 minutes to stabilize. […]
The radioactivity of [^3H]inulin in atrial perfusate was measured with a liquid scintillation counter, and the amount of ECF translocated through the atrial wall was caculated, the amount of ECF translocated through the atrial wall was calculated as: ECF translocated (μl/min/g atrial wet wt)=total radioactivity in the perfusate (cpm/min)×1000/radioactivity in the pericardial reservoir (cpm/μl)×atrial wet wt (mg).
For measurement of cGMP concentration in perfusate, 500 μl of the perfusate was treated with trichloroacetic acid to a final concentration of 6% for 15 minutes at room temperature and centrifuged at 4° C. […] The amount of cGMP efflux was expressed as pmol cGMP/min/g atrial tissue. […]

isolated right atrium = system: isolated right atrium; set-up: species or system SD rat; details: 100 μM, Ad.PRS-nNOS treated atria, n=6
isolated right atria = assay: Evoked [3H]NE release from isolated right atria of SHR and WKY five days after percutaneous gene transfer; set-up: species or system rat; details: 10 μmol/L
isolated atria = assay: [3H]ACh release from isolated atria on field stimulation; set-up: species or system rat; details: 10 μmol/L, 5 Hz field stimulation, WKY
Description: Animals were killed and the right atria removed as described above. The preparation was then transferred to a preheated (37 ??0.2 ?C), continuously oxygenated, water-jacketed organ bath containing 4 ml of Tyrode's solution where the atrium was pinned flat between two parallel silver stimulating electrodes 10 mm apart. […] After a 45 minutes equilibration period (where the Tyrode's solution was replaced every 15 minutes), the atrium was stimulated at 5 Hz (15V, 1 ms pulse duration) for one minute and then again after another minute to stimulate acetylcholine turnover. […]
Following the wash period superfusion was stopped and the bath solution replaced every 3 minutes with a 0.5 ml sample being taken on every change of solution. This sample was added to 4.5 ml of scintillation fluid (Ecoscint A, National Diagnostics) and the amount of radioactivity in each sample (disintegrations per minute) measured using a liquid scintillation counter (Tri-carb 2800TR, Packard). […] At the end of the experiment, the atrium was immersed overnight in Tyrode's solution containing 4 U/ml papain (Sigma) and the radioactivity contained in the extract determined. [3H] outflow was expressed as a percentage of the total radioactivity in the atrium at the end of the experiment and that released after superfusion.

For `C[N+](C)(C)CCOC(N)=O` [CCh, carbachol], the “heart rate response, SHR compared to WKY” value ([1]; 0.1 μmol/L) was “significantly increased heart rate response in SHR compared to WKY”, the “heart rate response, SHR compared to WKY” value ([1]; 0.2 μmol/L) was “No significantly changed” and the “heart rate response, SHR compared to WKY” value ([1]; 0.5 μmol/L) was “significantly increased heart rate response in SHR compared to WKY”. For the same molecule, the cGMP efflux concentration (cGMP) was “significantly increased cGMP efflux concentration in the SHR”.
With `NC(=NCCC[C@H](N)C(=O)O)N[N+](=O)[O-]` [L-NNA, Nω-Nitro-Larginine] the “effect on Ad.PRS-nNOS-induced attenuation of NE release” value (isolated right atrium) was “prevented the Ad.PRS-nNOS-induced attenuation of NE release; also recorded: reverse this response”.
`O=c1onc2cnc3ccccc3n12` [ODQ, 1H-(1,2,4)oxadiazolo(4,3-a)quinoxaline-1-one] was tested, and the “effect on NE release” value (isolated right atria; Ad.PRS-eGFP treated SHR) was “did not effect”, the “effect on NE release” value (isolated right atria; Ad.PRS-nNOS or Ad.PRS-eGFP treated WKY atria) was “significantly enhanced” and the “effect on Ad.PRS-nNOS attenuation of NE release” value (isolated right atria; Ad.PRS-nNOS treated SHR) was “reversed”. For the same molecule, the “effect on [3H]ACh release” value (isolated atria) was “significantly enhanced”.
